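Dose response: 5 concentrations. Exposure: 48 h. Format: 96-well plates. Endpoint: linear interpolation; highest concentration if not reached. TGI denotes the concentration required for complete inhibition of growth.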
system: OVCAR-3 ovarian; experiment: growth of human tumour cells (NCI), 48 h

Row | SMILES | TGI
1 | c1ccc2c(c1)Cn1c-2nc2ccccc21 | > 100 µM
2 | Oc1ccc2c(c1)c1c(n2CCN2CCOCC2)-c2ccccc2CC1 | 49.5 µM

system: MCF7 breast; experiment: growth of human tumour cells (NCI), 48 h

Row | SMILES | TGI
3 | O=C1CCCCC1CN1CCCCC1 (stereo not given) | > 100 µM
4 | CCOC(=O)Nc1sc2c(c1C#N)CCCC2 | > 100 µM
5 | O=C1CN(c2cccc(Cl)c2)C(=O)CN1CCN1CC(=O)N(c2cccc(Cl)c2)CC1=O | > 100 µM
6 | Nc1nc2c(c(-c3cccc(Cl)c3)n1)COC/C2=C\c1cccc(Cl)c1 | > 100 µM
7 | O=C(/C=C/c1ccc2c(c1)OCO2)c1ccc(O)cc1 | 23.1 µM
8 | c1ccc2c(c1)Cn1c-2nc2ccccc21 | > 100 µM
9 | Oc1ccc2c(c1)c1c(n2CCN2CCOCC2)-c2ccccc2CC1 | > 100 µM

system: MALME-3M melanoma; experiment: growth of human tumour cells (NCI), 48 h

Row | SMILES | TGI
10 | O=C1CCCCC1CN1CCCCC1 (stereo not given) | > 100 µM
11 | CCOC(=O)Nc1sc2c(c1C#N)CCCC2 | > 100 µM
12 | O=C1CN(c2cccc(Cl)c2)C(=O)CN1CCN1CC(=O)N(c2cccc(Cl)c2)CC1=O | > 100 µM
13 | Nc1nc2c(c(-c3cccc(Cl)c3)n1)COC/C2=C\c1cccc(Cl)c1 | 81.9 µM
14 | O=C(/C=C/c1ccc2c(c1)OCO2)c1ccc(O)cc1 | 28.6 µM
15 | c1ccc2c(c1)Cn1c-2nc2ccccc21 | > 100 µM
16 | Oc1ccc2c(c1)c1c(n2CCN2CCOCC2)-c2ccccc2CC1 | 53.2 µM

system: ACHN renal; experiment: growth of human tumour cells (NCI), 48 h

Row | SMILES | TGI
17 | O=C1CCCCC1CN1CCCCC1 (stereo not given) | > 100 µM
18 | CCOC(=O)Nc1sc2c(c1C#N)CCCC2 | > 100 µM
19 | O=C1CN(c2cccc(Cl)c2)C(=O)CN1CCN1CC(=O)N(c2cccc(Cl)c2)CC1=O | > 100 µM
20 | Nc1nc2c(c(-c3cccc(Cl)c3)n1)COC/C2=C\c1cccc(Cl)c1 | > 100 µM
21 | O=C(/C=C/c1ccc2c(c1)OCO2)c1ccc(O)cc1 | 59.4 µM
22 | c1ccc2c(c1)Cn1c-2nc2ccccc21 | > 100 µM
23 | Oc1ccc2c(c1)c1c(n2CCN2CCOCC2)-c2ccccc2CC1 | > 100 µM

system: M14 melanoma; experiment: growth of human tumour cells (NCI), 48 h

Row | SMILES | TGI
24 | O=C1CCCCC1CN1CCCCC1 (stereo not given) | > 100 µM
25 | O=C1CN(c2cccc(Cl)c2)C(=O)CN1CCN1CC(=O)N(c2cccc(Cl)c2)CC1=O | > 100 µM
26 | Nc1nc2c(c(-c3cccc(Cl)c3)n1)COC/C2=C\c1cccc(Cl)c1 | > 100 µM
27 | O=C(/C=C/c1ccc2c(c1)OCO2)c1ccc(O)cc1 | 32.2 µM
28 | c1ccc2c(c1)Cn1c-2nc2ccccc21 | > 100 µM
29 | Oc1ccc2c(c1)c1c(n2CCN2CCOCC2)-c2ccccc2CC1 | 57.3 µM

system: UACC-62 melanoma; experiment: growth of human tumour cells (NCI), 48 h

Row | SMILES | TGI
30 | O=C1CCCCC1CN1CCCCC1 (stereo not given) | > 100 µM
31 | CCOC(=O)Nc1sc2c(c1C#N)CCCC2 | > 100 µM
32 | O=C1CN(c2cccc(Cl)c2)C(=O)CN1CCN1CC(=O)N(c2cccc(Cl)c2)CC1=O | > 100 µM
33 | Nc1nc2c(c(-c3cccc(Cl)c3)n1)COC/C2=C\c1cccc(Cl)c1 | > 100 µM
34 | O=C(/C=C/c1ccc2c(c1)OCO2)c1ccc(O)cc1 | 33 µM
35 | c1ccc2c(c1)Cn1c-2nc2ccccc21 | > 100 µM
36 | Oc1ccc2c(c1)c1c(n2CCN2CCOCC2)-c2ccccc2CC1 | 48.1 µM

system: SNB-75 CNS; experiment: growth of human tumour cells (NCI), 48 h

Row | SMILES | TGI
37 | O=C1CCCCC1CN1CCCCC1 (stereo not given) | > 100 µM
38 | O=C1CN(c2cccc(Cl)c2)C(=O)CN1CCN1CC(=O)N(c2cccc(Cl)c2)CC1=O | > 100 µM
39 | Nc1nc2c(c(-c3cccc(Cl)c3)n1)COC/C2=C\c1cccc(Cl)c1 | > 100 µM
40 | O=C(/C=C/c1ccc2c(c1)OCO2)c1ccc(O)cc1 | 75.7 µM
41 | c1ccc2c(c1)Cn1c-2nc2ccccc21 | 73.3 µM
42 | Oc1ccc2c(c1)c1c(n2CCN2CCOCC2)-c2ccccc2CC1 | 76.3 µM

system: HS 578T breast; experiment: growth of human tumour cells (NCI), 48 h

Row | SMILES | TGI
43 | O=C1CCCCC1CN1CCCCC1 (stereo not given) | > 100 µM
44 | CCOC(=O)Nc1sc2c(c1C#N)CCCC2 | > 100 µM
45 | O=C1CN(c2cccc(Cl)c2)C(=O)CN1CCN1CC(=O)N(c2cccc(Cl)c2)CC1=O | > 100 µM
46 | Nc1nc2c(c(-c3cccc(Cl)c3)n1)COC/C2=C\c1cccc(Cl)c1 | > 100 µM
47 | O=C(/C=C/c1ccc2c(c1)OCO2)c1ccc(O)cc1 | 34.1 µM
48 | c1ccc2c(c1)Cn1c-2nc2ccccc21 | > 100 µM
49 | Oc1ccc2c(c1)c1c(n2CCN2CCOCC2)-c2ccccc2CC1 | 56.9 µM

system: U251 CNS; experiment: growth of human tumour cells (NCI), 48 h

Row | SMILES | TGI
50 | O=C1CCCCC1CN1CCCCC1 (stereo not given) | > 100 µM
51 | CCOC(=O)Nc1sc2c(c1C#N)CCCC2 | > 100 µM
52 | O=C1CN(c2cccc(Cl)c2)C(=O)CN1CCN1CC(=O)N(c2cccc(Cl)c2)CC1=O | > 100 µM
53 | Nc1nc2c(c(-c3cccc(Cl)c3)n1)COC/C2=C\c1cccc(Cl)c1 | > 100 µM
54 | O=C(/C=C/c1ccc2c(c1)OCO2)c1ccc(O)cc1 | 26.9 µM
55 | c1ccc2c(c1)Cn1c-2nc2ccccc21 | > 100 µM
56 | Oc1ccc2c(c1)c1c(n2CCN2CCOCC2)-c2ccccc2CC1 | > 100 µM

system: A498 renal; experiment: growth of human tumour cells (NCI), 48 h

Row | SMILES | TGI
57 | O=C1CCCCC1CN1CCCCC1 (stereo not given) | > 100 µM
58 | CCOC(=O)Nc1sc2c(c1C#N)CCCC2 | > 100 µM
59 | O=C1CN(c2cccc(Cl)c2)C(=O)CN1CCN1CC(=O)N(c2cccc(Cl)c2)CC1=O | > 100 µM
60 | Nc1nc2c(c(-c3cccc(Cl)c3)n1)COC/C2=C\c1cccc(Cl)c1 | > 100 µM
61 | O=C(/C=C/c1ccc2c(c1)OCO2)c1ccc(O)cc1 | 38.3 µM
62 | c1ccc2c(c1)Cn1c-2nc2ccccc21 | > 100 µM
63 | Oc1ccc2c(c1)c1c(n2CCN2CCOCC2)-c2ccccc2CC1 | 52.6 µM

system: EKVX NSCLC; experiment: growth of human tumour cells (NCI), 48 h

Row | SMILES | TGI
64 | O=C1CCCCC1CN1CCCCC1 (stereo not given) | > 100 µM
65 | CCOC(=O)Nc1sc2c(c1C#N)CCCC2 | > 100 µM
66 | O=C1CN(c2cccc(Cl)c2)C(=O)CN1CCN1CC(=O)N(c2cccc(Cl)c2)CC1=O | > 100 µM
67 | Nc1nc2c(c(-c3cccc(Cl)c3)n1)COC/C2=C\c1cccc(Cl)c1 | > 100 µM
68 | O=C(/C=C/c1ccc2c(c1)OCO2)c1ccc(O)cc1 | 30.3 µM
69 | c1ccc2c(c1)Cn1c-2nc2ccccc21 | > 100 µM
70 | Oc1ccc2c(c1)c1c(n2CCN2CCOCC2)-c2ccccc2CC1 | 92.5 µM

system: NCI-H522 lung; experiment: growth of human tumour cells (NCI), 48 h

Row | SMILES | TGI
71 | O=C1CCCCC1CN1CCCCC1 (stereo not given) | 4.42 µM
72 | CCOC(=O)Nc1sc2c(c1C#N)CCCC2 | > 100 µM
73 | O=C1CN(c2cccc(Cl)c2)C(=O)CN1CCN1CC(=O)N(c2cccc(Cl)c2)CC1=O | > 100 µM
74 | Nc1nc2c(c(-c3cccc(Cl)c3)n1)COC/C2=C\c1cccc(Cl)c1 | > 100 µM
75 | O=C(/C=C/c1ccc2c(c1)OCO2)c1ccc(O)cc1 | 6.72 µM
76 | c1ccc2c(c1)Cn1c-2nc2ccccc21 | > 100 µM

system: SF-295 CNS; experiment: growth of human tumour cells (NCI), 48 h

Row | SMILES | TGI
77 | O=C1CCCCC1CN1CCCCC1 (stereo not given) | > 100 µM
78 | CCOC(=O)Nc1sc2c(c1C#N)CCCC2 | > 100 µM
79 | O=C1CN(c2cccc(Cl)c2)C(=O)CN1CCN1CC(=O)N(c2cccc(Cl)c2)CC1=O | > 100 µM
80 | Nc1nc2c(c(-c3cccc(Cl)c3)n1)COC/C2=C\c1cccc(Cl)c1 | > 100 µM
81 | O=C(/C=C/c1ccc2c(c1)OCO2)c1ccc(O)cc1 | 32.6 µM
82 | c1ccc2c(c1)Cn1c-2nc2ccccc21 | > 100 µM
83 | Oc1ccc2c(c1)c1c(n2CCN2CCOCC2)-c2ccccc2CC1 | > 100 µM

system: SK-MEL-5 melanoma; experiment: growth of human tumour cells (NCI), 48 h

Row | SMILES | TGI
84 | O=C1CCCCC1CN1CCCCC1 (stereo not given) | > 100 µM
85 | CCOC(=O)Nc1sc2c(c1C#N)CCCC2 | > 100 µM
86 | O=C1CN(c2cccc(Cl)c2)C(=O)CN1CCN1CC(=O)N(c2cccc(Cl)c2)CC1=O | > 100 µM
87 | Nc1nc2c(c(-c3cccc(Cl)c3)n1)COC/C2=C\c1cccc(Cl)c1 | > 100 µM
88 | O=C(/C=C/c1ccc2c(c1)OCO2)c1ccc(O)cc1 | 29.1 µM
89 | c1ccc2c(c1)Cn1c-2nc2ccccc21 | > 100 µM

system: OVCAR-4 ovarian; experiment: growth of human tumour cells (NCI), 48 h

Row | SMILES | TGI
90 | O=C1CCCCC1CN1CCCCC1 (stereo not given) | > 100 µM
91 | CCOC(=O)Nc1sc2c(c1C#N)CCCC2 | > 100 µM
92 | O=C1CN(c2cccc(Cl)c2)C(=O)CN1CCN1CC(=O)N(c2cccc(Cl)c2)CC1=O | > 100 µM
93 | Nc1nc2c(c(-c3cccc(Cl)c3)n1)COC/C2=C\c1cccc(Cl)c1 | > 100 µM
94 | O=C(/C=C/c1ccc2c(c1)OCO2)c1ccc(O)cc1 | 38.8 µM
95 | c1ccc2c(c1)Cn1c-2nc2ccccc21 | > 100 µM
